B1: ifinatamab-DXd: ifinatamab-deruxtecan, comparator ADC in prostate xenograft models (conjugate, chains of the INN, looked up)
VH: QVQLVQSGAEVKKPGSSVKVSCKASGYTFTNYVMHWVRQAPGQGLEWMGYINPYNDDVKYNEKFKGRVTITADESTSTAYMELSSLRSEDTAVYYCARWGYYGSPLYYFDYWGQGTLVTVSS
VL: EIVLTQSPATLSLSPGERATLSCRASSRLIYMHWYQQKPGQAPRPLIYATSNLASGIPARFSGSGSGTDFTLTISSLEPEDFAVYYCQQWNSNPPTFGQGTKVEIK
modifications: deruxtecan payload
notes: ifinatamab-deruxtecan, comparator ADC in prostate xenograft models

Tests used:
[1] = Caco-2 cell permeability assay; type: in vitro ADME; conditions: human, Caco-2, pH 7.4, basal to apical Papp, pH 7.4, 2.5 h
Experimental: (§1) Certain Example compounds and Comparative Example 1 were tested for their apical to basal (AB) and basal to apical (BA) permeability in Caco-2 cells.
(§2) Cell Culture: Caco-2 cells were grown for 10 days in 96-well plates in HBSS buffer containing 10 mM HEPES. Both the apical and basal pH was buffered at pH 7.4. The apical/basal volumes were 75 μl and 250 μl respectively. The incubation time was 2.5 h at 37° C. (without shaking) under 5% CO2 & 95% relative humidity.
(§3) Cell Seeding: Cells were seeded at a density of 18750 cells/well (membrane area=0.0804 cm^2) in a 96 well plate.
(§4) AB Assay: 75 μl of cell suspension was added at a density 2.5×10^5 cells/ml to the apical wells. 40 ml media was added to the feeder tray. The plates were placed in the incubator (37° C., 5% CO2 and controlled humidity). The Caco-2 cells were grown for 10 days with a media change on every alternate day.
(§5) BA Assay: 25 μl of cell suspension was added at a density of 7.5×10^5 cells/ml to the bottom side (keeping the plate upside down) of apical wells. The plate (upside down position) was placed in the incubator (37° C., 5% CO2 and 95% Relative humidity) for 2 h. The plate was turned right side up. 75 μl media was added to the apical wells and 40 ml media to the feeder tray.
(§6) Permeablity Assay: The apical and basal wells were washed with buffer (pH 7.4) and 250 μl buffer was added to the wells of the basal plate. 75 μl of compound solution (2 μM, dissolved in water with 1% DMSO) was transferred to the apical wells (n=2). The apical plate was placed onto the basal plate. The lid was placed on to prevent evaporation. The assembly was incubated at 37° C. for 2.5 h (without shaking) under 5% CO2 and 95% relative humidity. After incubation the apical plate was separated from the basal plate. Aliquots were taken out from the acceptor and donor wells, diluted and quantified using LC-MS/MS along with initial donor samples.
(§7) Membrane Integrity Test: Solution in the apical wells was discarded by inverting the plate and soaking onto tissue paper. 250 μl buffer (pH 7.4) was added to each well of basal plate and 75 μl of Lucifer Yellow (LY; 0.1 mg/ml) in buffer (pH 7.4) to the wells of apical plate. The apical plate was placed onto the basal plate and the lid used to prevent evaporation. The assembly was incubated at 37° C. for 1 h (without shaking) under 5% CO2 and 95% relative humidity. The apical plate was separated from the basal plate. Fluorescence (Ex: 432 nm, Em: 530 nm) of aliquots (100 ul) was measured from basal wells. Fluorescence of 100 μl buffer (pH 7.4) and 100 μl LY(0.1 mg/ml) was also measured. Wells having more than 1% fluorescence intensity with respect to 0.1 mg/ml LY were considered non-integrated membrane. Such wells, if any, were not considered for permeability calculation.
(§8) Calculation: Drug was detected and quantified by LC-MS/MS. Data generated took the form of an apparent permeability (Papp) value. Papp=[Va/(AreaxTime)]×(LC-MS Area of Acceptor sample×Sample dilution factor/LC-MS Area of Initial Donor). Va=Volume of Acceptor Well (in ml)=0.25, Vd=Volume of Donor Well (in ml)=0.075, Area=Surface area of the membrane (cm2)=0.0804, Time=Time of incubation (sec)=9000 Results: The results of the assay are shown in Table 3 below.

Caco-2 cells = experiment: Caco-2 cell permeability assay; type: in vitro ADME; conditions: apical to basal Papp, 2 μM, pH 7.4, 2.5 h
Experimental: as §1, §2, §3, §4, §5, §6, §7, §8

[2] = test system: SU-DHL-10 cell line (human B cell lymphoma); experiment: Cell cytotoxicity in SU-DHL-10 cell line (CellTiter-Glo); type: cell-based; conditions: Homo sapiens, SU-DHL10, 72 h, 72 h treatment, CTG
Experimental: Certain Example compounds of the invention and Comparator Compound 1 were tested in the SU-DHL-10 cell line (human B cell lymphoma). Compounds which show efficacy in this assay are expected to be useful as agents for treating or preventing hyperproliferative disorders such as cancer.
(§9) Cells were seeded in 96-well microplates and treated with compounds or cisplatin (as a positive control) at 9 increasing concentrations in technical triplicate. […] On day 1, 90 μL of various cell suspensions with the number of cells ranging from 5000-8000 cells/well were seeded into wells of a 96-well plate (Corning). The number of cells to be seeded was previously determined. • 2. All 96-wells plates with cells were placed in an incubator overnight at 37° C. with 5% CO2. • 3. On day 2, cells were observed under a microscope ensuring the cells treated with vehicle control were in good condition. • 4. A dilution series of the test compounds and cisplatin were prepared at 10× the final concentrations required. 10 μL/well of 10× compound solution was added to the corresponding plates. The final volume was 100 μL/well for all the plates. Final DMSO concentration was 0.1%. • 5. On day 5 (after 72 hours of incubation), 50 μL of CTG reagent was added to each well. • 6. Contents were mixed for 5 minutes on an orbital shaker to facilitate cell lysis. • 7. The plate was allowed to incubate at room temperature for 10 minutes to stabilize luminescent signals.
Luminescence was recorded using an EnVision Multi Label Reader. Data analysis was performed using GraphPad Prism 8.0.
To calculate IC50, a concentration-response curve was generated using a nonlinear regression model with a sigmoidal concentration response. The formula for calculating the % of viable cells was shown below, and the IC50s are automatically generated by GraphPad Prism 8.0.
(LumTest article=luminescence in test article treated well; LumNone treated=luminescence in vehicle treated well; LumMedium control=luminescence in a well containing only medium and no cells; LumNone treated-LumMedium control was set as 100%)

[3] = test system: LYXFDLBC4009 (patient-derived xenograft lymphoma); experiment: Cell cytotoxicity CellTiter-Glo, LYXFDLBC4009; type: cell-based
Experimental: as §9
(§10) The effects of Comparator Compound 1 and certain Example compounds on the viability of various cell lines (LYXFDLBC2835, LYXFDLBC4009 and LYXFDLBC411 (patient-derived xenograft lymphoma), HT1080 (human fibrosarcoma), CA46 (human B cell lymphoma), RKO (human colon carcinoma), NCI-H1703 (human lung squamous cell carcinoma), MX-1 (human breast carcinoma), DU4475 (human breast carcinoma), LU2511 (human lung large cell undifferentiated carcinoma), LU0884 (human lung squamous cell carcinoma)), Panc-1 (human pancreatic carcinoma), MCF-7 (human breast cancer), SW480 (human colon adenocarcinoma) and HCC1806 (human breast ductal carcinoma) were performed using the standard CellTiter-Glo assay (CTG, Promega) as described in Biological Example 2. Compounds which show efficacy in these assays are expected to be useful as agents for treating or preventing hyperproliferative disorders such as cancer.

DOHH-2 tumor cells = experiment: Subcutaneous xenograft DOHH-2 lymphoma model; type: in vivo, CB17/SCID mice; conditions: oral dosing 12.5 or 25 mg/kg once a day for 9 days
Experimental: The in vivo efficacy of certain Example compounds was assessed in a subcutaneous xenograft DOHH-2 Lymphoma Model using 10 female 6-8 week old CB17/SCID Mice. Each mouse was inoculated subcutaneously at the right front region with DOHH-2 tumor cells (5×10^6) in 0.1 ml of PBS mixed with matrigel (1:1 PBS:matrigel) for tumor development. The test compound administration started once the mean tumor size reached approximately 100-150 mm^3.
Compounds were administered either IP (vehicle 10 mM sodium phosphate+0.2% Tween-80 (pH7.4) or orally (vehicle 15 Na2HPO4 buffer (10 mM) (pH 4.5)+0.2% tween 80). Tumor volumes were measured in two dimensions using a caliper, and the volume expressed in mm^3 using the formula: V=(L×W×W)/2, where V is tumor volume, L is tumor length (the longest tumor dimension) and W is tumor width (the longest tumor dimension perpendicular to L).
Mice were dosed with Example 21 orally (12.5 or 25 mg/kg) once a day for 9 consecutive days (FIG. 3). Example 5 was dosed intraperitoneally (7 or 20 mg/kg) in a cycle consisting of administration QD for three days followed by a three day no-dosing period followed by QD dosing for a further three days (FIG. 4). Example 12 was dosed intraperitoneally (0.7 or 2 mg/kg) in a cycle consisting of administration QD for three days followed by a three day no-dosing period followed by QD dosing for a further three days (FIG. 5). In a separate study Example 12 was dosed at […] in a cycle consisting of administration QD for two days followed by either four or six day no-dosing period, and this cycle was repeated three times (FIG. 6).

[4] = test system: LYXFDLBC2835 (patient-derived xenograft lymphoma); experiment: Cell cytotoxicity CellTiter-Glo, LYXFDLBC2835; type: cell-based
Experimental: as §9, §10

[5] = test system: LYXFDLBC4113 (patient-derived xenograft lymphoma); experiment: Cell cytotoxicity CellTiter-Glo, LYXFDLBC4113; type: cell-based
Experimental: as §9, §10

LNCaP tumour cells = experiment: LNCaP prostate cancer xenograft model; type: in vivo, NOD SCID mice; conditions: for Day 28 tumour volume (mm^3, mean ± SEM) / Tumour growth inhibition (TGI, %): IV, Q7D (×3); for Tumour growth inhibition (TGI, %): day 28
Description: A total of 84 male NOD SCID mice aged 5-8 weeks and weighing 25-30 g were used for the study.

VcaP tumour cells = experiment: VCaP prostate cancer xenograft model; type: in vivo, CB17/SCID mice
Description: All mice received two doses of test agent, on Study Day 1 and Study Day 8. The study was terminated on Study Day 30.

JIMT-1 tumour cells = experiment: JIMT-1 breast cancer xenograft model; type: in vivo, NOD/SCID mice
Experimental: 80 mice were assigned to 8 treatment groups when tumour volumes averaged ˜160.66 mm^3 on Study Day 0. Dosing commenced the following day and all animals were dosed intravenously with ADC Example 3, sacituzumab govitecan or unconjugated sacituzumab. The study was terminated on the Study Day 60.

[6] = 2.5 mg/kg IV QW × 2 weeks (Group 5 also got ADC Example 3 5 mg/kg on Day 27)
[7] = 5 mg/kg IV QW × 2 weeks (Group 4 also got ADC Example 3 5 mg/kg on Day 27)

Molecule	IC50 [2] [nM]	LNCaP tumour volume compared to the vehicle control (LNCaP tumour cells; 5 mg/kg)	Day 28 tumour volume (mm^3, mean ± SEM) (LNCaP tumour cells; 5 mg/kg) [mm^3]	Tumour growth inhibition (TGI, %) (LNCaP tumour cells; 5 mg/kg) [%]	LNCaP tumour volume compared to the vehicle control (LNCaP tumour cells; 10 mg/kg)	Day 28 tumour volume (mm^3, mean ± SEM) (LNCaP tumour cells; 10 mg/kg) [mm^3]	Tumour growth inhibition (TGI, %) (LNCaP tumour cells; 10 mg/kg) [%]	ΔTGI (Study Day 17) (VcaP tumour cells; 2.5 mg/kg IV QW × 2 weeks) [%]	ΔTGI (Study Day 17) (VcaP tumour cells; 5 mg/kg IV QW × 2 weeks) [%]	ΔTGI (Study Day 28) (JIMT-1 tumour cells; [6]) [%]	ΔTGI (Study Day 28) (JIMT-1 tumour cells; [7]) [%]	other results
CNCc1cnc2ccc(-c3ccc(F)cc3OCCc3c(C(C)(C)O)nn(C)c3C)cn12 [Example 18, 2-(4-(2-(5-fluoro-2-(3-((methylamino)methyl)imidazo[1,2-a]pyridin-6-yl)phenoxy)ethyl)-1,5-dimethyl-1H-pyrazol-3-yl)propan-2-ol]	5.3											Papp B→A at 2.5 h, 2 μM [1]: 21.1 ×10⁻⁶ cm/s; Caco-2 A-B (Caco-2 cells): 0.3 ×10⁻⁶ cm/s
CNCc1cnc2ccc(-c3ccc(F)c(F)c3OCCc3c(C(C)(C)O)nn(C)c3C)cn12 [Example 21, 2-(4-(2-(2,3-difluoro-6-(3-((methylamino)methyl)imidazo[1,2-a]pyridin-6-yl)phenoxy)ethyl)-1,5-dimethyl-1H-pyrazol-3-yl)propan-2-ol]	0.4											IC50 [3]: 35 nM; tumour volume compared to vehicle (DOHH-2 tumor cells): significant reduction in tumour volume or reduced growth in tumour volume; IC50 [4]: 54 nM; IC50 [5]: 23 nM
ifinatamab		no significant effect	551.4 ± 73.1	30.6	no significant effect	666.56 ± 103.2	13.0	8.47	12.44			tumour volumes compared to vehicle alone (Group 1) (VcaP tumour cells; all concentrations tested (ADC Example 4: 2.5, 5, 10 mg/kg; unconjugated ifinatamab: 5 and 2.5 mg/kg)): no significant difference
sacituzumab										12.11	14.44	tumour volume compared to vehicle alone (Group 1) (JIMT-1 tumour cells; 2.5 mg/kg (Group 3), p=0.0586): no significant difference; tumour volume compared to vehicle alone (Group 1) (JIMT-1 tumour cells; 5 mg/kg (Group 2), p=0.0028): significant decrease; tumour volume, 5 mg/kg (Group 2) versus 2.5 mg/kg (Group 3) (JIMT-1 tumour cells; p=0.9837): no significant difference
sacituzumab govitecan										13.13	23.39	tumour volume compared to Groups 2 and 3 (unconjugated sacituzumab) (JIMT-1 tumour cells; 2.5 mg/kg (Group 5)): no significant difference; tumour volume compared to unconjugated sacituzumab Group 2 (5 mg/kg) and Group 3 (2.5 mg/kg) (JIMT-1 tumour cells; 5 mg/kg (Group 4)): significant decrease; tumour volumes compared to vehicle alone (Group 1) (JIMT-1 tumour cells; all concentrations tested (ADC Example 3: 2.5, 5, 10 mg/kg; sacituzumab govitecan: 5 and 2.5 mg/kg)): significant decrease
B1		slowed the growth of LNCaP tumours to a lesser extent	364.6 ± 51.7	58.8	significantly reduced the mean volume	259.5 ± 50.3	75.0	5.24	2.86			tumour volume compared to Groups 2, 3 and 4 (VcaP tumour cells; 2.5 mg/kg (Group 5)): no significant difference; tumour volume compared to vehicle alone (Group 1) (VcaP tumour cells; 2.5 mg/kg (Group 5)): no significant difference; tumour volume compared to unconjugated ifinatamab 5 mg/kg and 2.5 mg/kg (VcaP tumour cells; 5 mg/kg (Group 4)): significantly higher tumour volume; tumour volume compared to vehicle alone (Group 1) (VcaP tumour cells; 5 mg/kg (Group 4)): significantly higher tumour volume
